Measurements taken from patent US20100267796A1, “THERAPEUTIC AGENT FOR IRRITABLE BOWEL SYNDROME” (KYOWA HAKKO KOGYO CO., LTD., priority 2006, published 2010).

Key:
[1] = tested on: restraint stress-induced defecation; assay: Action on restraint stress-induced defecation; type: in vivo, male Wistar rats; conditions: 10 mg/kg p.o. 1 hour before restraint stress; measured 1 hour after stress initiation; rats, n=10; control of each sub-table 1.06-1.71 g
Procedure: An experiment was carried out according to the method of Kishibayashi et al. [Japanese Journal of Pharmacology, Vol. 69, No. 4, pp. 495-502 (1993)]. In the experiment, male Wistar rats aged 6 to 7 weeks (supplied from Charles River Laboratories Japan, Inc.) were used. […] The rats were lightly anesthetized with diethyl ether, and the thoracic trunk and the forelimbs were wrapped with a tape to produce mild stress. One hour after stress initiation, the wet weight of fecal pellets was measured. Each drug solution was orally administered 1 hour before restraint stress. A test compound was suspended at a concentration of 2 mg/mL in an aqueous solution of 0.5 w/v % methyl cellulose 400 cP and orally administered at a volume of 5 mL/kg (at a dose of 10 mg/kg). In a control, an aqueous solution of 0.5 w/v % methyl cellulose 400 cP was administered. Ten rats were used in each group. […] YM060, a serotonin 5-HT3 receptor antagonist [The Journal of Pharmacology and Experimental Therapeutics, Vol. 259, No. 2, pp. 815-819 (1991), Astellas Pharma. Inc., online, internet (URL: […].com/jp/companry/news/2006/pdf/060131.pdf)], which is being applied as a therapeutic agent for irritable bowel syndrome, was administered at a dose of 0.1 mg/kg.

[2] = tested on: capsaicin-induced visceral pain; assay: Action on capsaicin-induced visceral pain model; type: in vivo, male ddY mice; conditions: doses of 3 and 30 mg/kg p.o. 30 minutes before 0.1% capsaicin into the colon; mice, n=10; 60 minutes
Procedure: It has been reported that a visceral pain is induced by the administration of capsaicin into the colon [Pain, Vol. 92, No. 3, pp. 335-342 (2001)].
A suspension of Compound 1-1 was prepared with an agate mortar using 0.5 w/v % MC.
Capsaicin (Sigma-Aldrich) was dissolved in a physiological saline solution containing 10% ethanol (Kanto Chemical co., Ltd.) and 10% polyoxyethylene (20) sorbitan monooleate (Tween 80, Wako Pure Chemical Industries, Ltd.), and the resultant solution was used. A test compound was orally administered in a volume of 10 mL/kg, and MC was administered to a control group in the same volume.
Male ddY mice (Japan SLC, Inc.) with a body weight of 27 g to 29 g were purchased and used in an experiment. After inspection and acclimation for 2 days or more, the mice showing favorable increases in body weight and no obvious abnormality were used. […]
After the oral administration of Compound 1-1 or 0.5 w/v % MC, each mouse was housed in a cage and left therein. […] Then, each of the mice was placed in an acrylic cage (8 cm in length×8 cm in width×15 cm in height) and recorded with a video (Sony) for 1 hour. After the recording, the following 4 behaviors and symptoms were measured as indexes of capsaicin-induced visceral pain at an interval of 5 minutes. […]

## C[C@](O)(C(=O)Nc1cccc2c1C(=O)c1sccc1CS2(=O)=O)C(F)(F)F [Compound 1-1]
[1]
  Wet weight of fecal pellets: 0.27 ± 0.06 g
[2]
  numbers of pain-related behaviors: suppressed the pain-related behaviors
